# Test results reported in publication PMC4351150 (Cancer immunology research, 2015).
# “And” between values parts separate entries of the source, which are not always exact repeats. Identical values can stand only once.
# Tests used:
# [1] = test system: CD8^+ cells; format: cell-based; conditions: UNC-CDK4-1-pulsed T2 cells as stimulators; % of CD8^+ cells (Supplementary Figure 1)
# [2] = test system: CD8^+ T cells of HLA-A*02:01-expressing post-SCT AML patients; experiment: PE-peptide/HLA-A*02:01 tetramer flow cytometry of post-SCT AML patient PBMCs; format: cell-based
# [3] = test system: CD8^+ TCRβ repertoire of Patient 5; experiment: Bulk TCRβ repertoire sequencing: mapping of tetramer-associated TCRβ clonotypes; design: species or system human; conditions: for total share of tetramer-associated TCRβ clonotypes in TCRβ repertoire: Patient 5, sample 2 months later, 3×10^6 CD8^+ cells, Illumina HiSeq
# [4] = molecular target: HLA-A*02:01 (Homo sapiens, UniProt P04439, D140Y/D185E/D98H/E176V/E277Q/G131W/G231S/I119V/I121R/I166T/I218V/L300P/L318F/N151K/N90K/P208A/P217A/Q86G/Q94H/R138H/R169H/T345S); experiment: iTopia binding affinity assay
Sequence,CD8^+ cells specific for UNC-CDK4-1 [1],"tetramer frequency, % of CD8^+ cells (positive patients) ([2]; 3 of 6 post-SCT AML patients, PE-UNC-CDK4-1/HLA-A*02:01 tetramer, 4°C, 25 minutes, threshold >0.01%)","tetramer^+ T-cell population frequency in Patient 5 ([2]; Patient 5, day +567 post-SCT, CMV seropositive, not viremic)",total share of tetramer-associated TCRβ clonotypes in TCRβ repertoire [3],"mean enrichment ratio of tetramer-associated clonotypes ([3]; clonotype frequency in tetramer^+ gate / clonotype frequency in bulk repertoire, Patient 5, t-test p < 0.0001 between antigens)",binding affinity to HLA-A*02:01 [4]
ALTPVVVTL [UNC-CDK4-1],0.2%,> 0.01%,0.04%,> 17% and 17.1%,1.04×10^1,high affinity to HLA-A*02:01
"NLVPMVATV [pp65NLV, reference compound]",,,,0.002%,,
